Source: publication PMC12040169 (PLOS Biology, 2025)

Test: in vitro
Details: human, hela cells, % viability

| SMILES | viability at 28.5 h, 10 µM |
| --- | --- |
| O=C(Nc1ccc(N2CCNCC2)nc1)C1CCCO1 (centres unmarked) [CBK004748T] | 85.7% |
| Cc1nn(C)c(C)c1OCC(=O)Nc1sc2c(c1C#N)CCC2 [CBK306374] | 79.4% |
| CCOc1cccc(N2C(=O)c3cc(Br)ccc3NC2c2ccc(OC)c(OC)c2)c1 (centres unmarked) [CBK074502] | 88.4% |
| O=C(O)C1C2C=CC(O2)C1C(=O)Nc1ccc2c(c1)OCO2 (centres unmarked) [CBK265475] | 88.6% |
| Cc1c(C(c2ccc(C(=O)O)cc2)c2c(C)n(C)n(-c3ccccc3)c2=O)c(=O)n(-c2ccccc2)n1C [CBK261691] | 102% |
| Cc1csc(C(Cc2ccsc2)NC(=O)C2CC2C)n1 (centres unmarked) [CBK282226] | 86.7% |
| COc1ccc(CC(=O)N(C)CCN2CCCCC2)cc1C [CBK282728] | 99.3% |
| C=C(C)CN1CCN(C(=O)c2cc3cccc(OC)c3oc2=O)CC1 [CBK269211] | 59% |
| CC(=O)N[C@@H](Cc1c[nH]cn1)C(=O)Nc1cc2ccccc2c(Br)n1 [CBK063302] | 91.3% |
| O=C(COc1ccc(Br)cc1C(=O)O)Nc1ccc(F)cc1 [CBK286671] | 92% |
| Fc1ccc(-c2cncc(NCc3ccco3)n2)c(F)c1 [CBK065834] | 91.9% |
| Cc1ccc(OCC(=O)NC(=S)Nc2ccc(Cl)c(-c3nc4ncccc4o3)c2)cc1 [CBK263930] | 103% |
| O=C(O)CCNS(=O)(=O)c1cccc(Cl)c1 [CBK267328] | 106% |
| COc1ccc(OCC(=O)Nc2ccc3c(c2)nc2n3CCN(Cc3ccccc3)C2)cc1 [CBK266989] | 97.6% |
| O=C(NCc1ccc(F)cc1)N1CCCC(CO)C1 (centres unmarked) [CBK156056] | 102% |
| O=C(Cc1ccc(F)cc1)N1CCC(c2cccc(Cc3ccccc3F)n2)CC1 [CBK286213] | 117% |
| COc1ccc(-c2cc(C(=O)NCCc3ccncc3)cnc2-c2ccc(F)cc2)cc1 [CBK037434] | 91.5% |
| CCC(CC)C(=O)N(C)c1c(C)nc2ccc(C(=O)N(C)CCN(C)C)cn12 [CBK146491] | 94.8% |
| Cc1cc(C)n(-c2nc3ccccc3nc2N2CCN(S(=O)(=O)c3ccc4ccccc4c3)CC2)n1 [CBK269134] | 103% |
| Cn1cc(C(=O)N2CCc3nc(-c4cccc(F)c4)sc3C2)cn1 [CBK281910] | 94.5% |
| O=C(O)c1cccc(NS(=O)(=O)c2cccc([N+](=O)[O-])c2)c1 [CBK155711] | 99.2% |
| CC(C)CNC(=O)N1CCN(CCN2CCOCC2)CC1 [CBK155826] | 88.1% |

| SMILES | viability at 28.5 h, 10 µM |
| --- | --- |
| CCOC(=O)Cn1nc(CC)n2c(cc3sccc32)c1=O [CBK284073] | 80.3% |
| CC(C)NCC(O)COCc1ccc(Cl)cc1 (centres unmarked) [CBK261406C] | 108% |
| Cn1ncc(N2CCN(C(=O)CCN3CCCCCC3=O)CC2)cc1=O [CBK306508] | 109% |
| Cn1cc(CN2CCNC(=O)C2c2ccccc2C(F)(F)F)cn1 (centres unmarked) [CBK306407] | 90.4% |
| Cc1noc(C)c1CCC(=O)NC(Cc1ccncc1)C1CC(O)C1 (centres unmarked) [CBK306790] | 91% |
| O=C(NC1Cc2ccccc2C1)c1cnccc1C(F)(F)F [CBK200353] | 98.6% |
| O=C(C1CC1)N1CCC(c2[nH]ncc2-c2ccncc2)CC1 [CBK284238] | 87.6% |
| O=C(Cc1c[nH]c2ccccc12)N1CCC2(CCN(C(=O)c3ccc4[nH]c(=O)[nH]c4c3)C2)C1 (centres unmarked) [CBK131452] | 90.8% |
| CC[C@H]1CN(C(=O)c2ccnc(Cl)c2)CC[C@H]1CC(=O)NCc1ccc2c(c1)OCO2 [CBK289137] | 110% |
| CC(C)Nc1cncc(Sc2ccccc2N)n1 [CBK093726] | 91.7% |
| COC(=O)CNC(c1ccccc1)c1cc(Br)ccc1N (centres unmarked) [CBK019222] | 96.8% |
| Cc1ccc(OCc2nnc(SCc3cccc(C#N)c3)n2N)cc1C [CBK267420] | 84.1% |
| COc1ccc(NS(=O)(=O)c2ccc(NC(=O)c3nc4nc(C)cc(C(F)F)n4n3)cc2)cc1 [CBK266123] | 91.4% |
| O=C(c1ccc2c(c1)CCO2)N1CCC(Sc2ccc(-c3ccccc3)cc2)CC1 [CBK131953] | 94.8% |
| O=C(O)CCc1ccc(-c2cc(N3CCN(CC(=O)N4CCCC4)CC3)ncn2)cc1 [CBK091079] | 104% |
| Cc1nc(-c2ccc(S(=O)(=O)N3CCC(Cc4ccccc4)CC3)cc2)cs1 [CBK265494] | 108% |
| CC(CC(=O)N1CCC(c2cc3cccnc3[nH]2)CC1)n1cccn1 (centres unmarked) [CBK285036] | 100% |
| Cc1nnc(CCNC2CCN(c3ncnc4c(C)csc34)CC2)s1 [CBK307574] | 84.9% |
| O=C(O)C(CC(=O)N1CCOCC1)NCc1ccccc1 (centres unmarked) [CBK267000] | 100% |
| COc1ccccc1N1CCN(C(=O)c2snnc2C)CC1 [CBK057792] | 92.8% |
| O=C(O)CCSCC(=O)c1ccc(NS(=O)(=O)c2ccccc2)cc1 [CBK300504] | 97.5% |
| O=C(CC1Oc2ccccc2NC1=O)Nc1ccc2c(c1)CN(Cc1ccccc1)C2 (centres unmarked) [CBK285991] | 88% |
